Test results from US20240308976A1, “COMPOUNDS THAT MEDIATE PROTEIN DEGRADATION AND USES THEREOF” (Monte Rosa Therapeutics, Inc., priority 2021, published 2024).

Tests used:
CRBN-DDB1 = CRBN-DDB1 (Homo sapiens, UniProt Q96SW2); experiment: Compound binding to CRBN by HTRF assay; conditions: CRBN-DDB1 2.5 nM, Cy5-Thalidomide 100 nM, 30 min at ambient temperature; read-out: HTRF Class (Cereblon binding, HTRF IC50)
In short: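 Cy5-thalidomide (100 nM) displacement from His-tagged CRBN-DDB1 (2.5 nM) read by terbium-cryptate HTRF (665/620 nm), in 20 mM HEPES, 20 mM NaCl, 0.2 mM TCEP, 0.2 mM EDTA, 0.005% Tween20. Compounds tested as 10-point 1:3 series, 30 min at ambient temperature. Signal normalised to DMSO and lenalidomide controls; IC50 fitted, Ki by Cheng-Prusoff.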

GSPT1 = molecular target: T1, GSPT1 (Homo sapiens, UniProt P15170+Q96SW2); experiment: Immunofluorescence assay for activity to degrade GSPT1 in CAL-51 cells; format: cell-based; conditions: 6 h treatment, read-out: IF Class (GSPT1 degradation, DC50)
T1 construct: CAL-51 cells were purchased from DSMZ (cat. Number ACC302); host or cells: CAL-51
T1 sequence (P15170 whole entry): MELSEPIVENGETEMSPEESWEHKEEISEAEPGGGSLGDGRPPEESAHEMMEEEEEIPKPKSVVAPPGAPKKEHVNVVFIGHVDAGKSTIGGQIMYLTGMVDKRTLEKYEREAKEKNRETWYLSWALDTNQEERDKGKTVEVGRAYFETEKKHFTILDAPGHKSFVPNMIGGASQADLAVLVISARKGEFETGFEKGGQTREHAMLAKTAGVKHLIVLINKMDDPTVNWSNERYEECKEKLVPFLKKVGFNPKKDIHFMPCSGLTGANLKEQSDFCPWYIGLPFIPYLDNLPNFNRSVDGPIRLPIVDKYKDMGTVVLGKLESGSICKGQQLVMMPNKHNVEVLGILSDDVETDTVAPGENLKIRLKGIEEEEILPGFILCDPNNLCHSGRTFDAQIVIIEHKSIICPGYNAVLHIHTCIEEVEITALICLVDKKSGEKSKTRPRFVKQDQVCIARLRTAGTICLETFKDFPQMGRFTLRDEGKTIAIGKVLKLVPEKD
T1 sequence (Q96SW2 whole entry): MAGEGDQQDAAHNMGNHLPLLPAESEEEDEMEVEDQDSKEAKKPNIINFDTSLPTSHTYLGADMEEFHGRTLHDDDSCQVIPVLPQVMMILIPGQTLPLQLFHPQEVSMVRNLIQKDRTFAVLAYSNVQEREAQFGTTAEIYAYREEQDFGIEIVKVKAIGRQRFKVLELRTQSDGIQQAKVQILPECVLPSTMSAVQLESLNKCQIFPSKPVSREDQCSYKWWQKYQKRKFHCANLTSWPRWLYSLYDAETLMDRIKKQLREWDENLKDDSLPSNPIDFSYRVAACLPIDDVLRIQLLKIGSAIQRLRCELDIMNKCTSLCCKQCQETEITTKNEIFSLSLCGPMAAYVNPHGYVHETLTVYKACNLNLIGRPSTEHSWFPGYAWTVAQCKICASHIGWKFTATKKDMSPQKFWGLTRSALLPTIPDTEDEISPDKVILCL
T1 sequence (Q16531 2-1140 partner limits assumed): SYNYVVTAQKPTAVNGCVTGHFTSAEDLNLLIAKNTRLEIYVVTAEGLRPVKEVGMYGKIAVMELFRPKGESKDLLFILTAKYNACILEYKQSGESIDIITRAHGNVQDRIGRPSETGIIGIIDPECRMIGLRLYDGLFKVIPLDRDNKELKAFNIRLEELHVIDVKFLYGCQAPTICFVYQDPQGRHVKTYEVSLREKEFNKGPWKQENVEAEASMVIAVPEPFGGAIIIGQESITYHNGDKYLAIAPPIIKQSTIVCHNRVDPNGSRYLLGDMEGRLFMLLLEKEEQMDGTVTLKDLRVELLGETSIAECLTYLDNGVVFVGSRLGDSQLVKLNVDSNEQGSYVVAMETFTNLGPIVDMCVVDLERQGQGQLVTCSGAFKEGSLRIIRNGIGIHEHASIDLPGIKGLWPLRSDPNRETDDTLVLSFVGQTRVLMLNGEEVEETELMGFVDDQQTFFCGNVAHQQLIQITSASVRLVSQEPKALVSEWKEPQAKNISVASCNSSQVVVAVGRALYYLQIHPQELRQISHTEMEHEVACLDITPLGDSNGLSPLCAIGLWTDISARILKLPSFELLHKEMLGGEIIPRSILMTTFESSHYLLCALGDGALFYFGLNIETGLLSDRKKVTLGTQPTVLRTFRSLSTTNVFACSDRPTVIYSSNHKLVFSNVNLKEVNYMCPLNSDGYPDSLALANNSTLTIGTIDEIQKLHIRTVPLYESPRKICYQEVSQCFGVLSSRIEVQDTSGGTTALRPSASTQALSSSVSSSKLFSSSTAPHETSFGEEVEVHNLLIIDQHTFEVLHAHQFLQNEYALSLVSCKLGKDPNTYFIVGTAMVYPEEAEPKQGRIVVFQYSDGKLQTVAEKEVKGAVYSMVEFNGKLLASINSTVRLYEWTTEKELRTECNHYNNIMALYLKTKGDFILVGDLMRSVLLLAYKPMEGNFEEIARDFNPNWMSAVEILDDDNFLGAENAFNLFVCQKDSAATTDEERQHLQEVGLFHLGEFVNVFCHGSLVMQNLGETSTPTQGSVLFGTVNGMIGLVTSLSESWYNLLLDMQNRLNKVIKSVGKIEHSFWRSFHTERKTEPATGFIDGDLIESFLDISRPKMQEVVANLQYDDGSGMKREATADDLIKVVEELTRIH
In short: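 CAL-51 cells treated 6 h with compound (30 μM to 0.1 nM), fixed, immunostained for GSPT1 with DAPI and phalloidin counterstains, imaged by high-content microscopy. Mean per-cell GSPT1 intensity normalized to controls; DC50 by non-linear regression.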

Sequence of CRBN-DDB1 (Q96SW2 whole entry): as the sequence (Q96SW2 whole entry) above
Sequence of CRBN-DDB1 (Q16531 whole entry partner): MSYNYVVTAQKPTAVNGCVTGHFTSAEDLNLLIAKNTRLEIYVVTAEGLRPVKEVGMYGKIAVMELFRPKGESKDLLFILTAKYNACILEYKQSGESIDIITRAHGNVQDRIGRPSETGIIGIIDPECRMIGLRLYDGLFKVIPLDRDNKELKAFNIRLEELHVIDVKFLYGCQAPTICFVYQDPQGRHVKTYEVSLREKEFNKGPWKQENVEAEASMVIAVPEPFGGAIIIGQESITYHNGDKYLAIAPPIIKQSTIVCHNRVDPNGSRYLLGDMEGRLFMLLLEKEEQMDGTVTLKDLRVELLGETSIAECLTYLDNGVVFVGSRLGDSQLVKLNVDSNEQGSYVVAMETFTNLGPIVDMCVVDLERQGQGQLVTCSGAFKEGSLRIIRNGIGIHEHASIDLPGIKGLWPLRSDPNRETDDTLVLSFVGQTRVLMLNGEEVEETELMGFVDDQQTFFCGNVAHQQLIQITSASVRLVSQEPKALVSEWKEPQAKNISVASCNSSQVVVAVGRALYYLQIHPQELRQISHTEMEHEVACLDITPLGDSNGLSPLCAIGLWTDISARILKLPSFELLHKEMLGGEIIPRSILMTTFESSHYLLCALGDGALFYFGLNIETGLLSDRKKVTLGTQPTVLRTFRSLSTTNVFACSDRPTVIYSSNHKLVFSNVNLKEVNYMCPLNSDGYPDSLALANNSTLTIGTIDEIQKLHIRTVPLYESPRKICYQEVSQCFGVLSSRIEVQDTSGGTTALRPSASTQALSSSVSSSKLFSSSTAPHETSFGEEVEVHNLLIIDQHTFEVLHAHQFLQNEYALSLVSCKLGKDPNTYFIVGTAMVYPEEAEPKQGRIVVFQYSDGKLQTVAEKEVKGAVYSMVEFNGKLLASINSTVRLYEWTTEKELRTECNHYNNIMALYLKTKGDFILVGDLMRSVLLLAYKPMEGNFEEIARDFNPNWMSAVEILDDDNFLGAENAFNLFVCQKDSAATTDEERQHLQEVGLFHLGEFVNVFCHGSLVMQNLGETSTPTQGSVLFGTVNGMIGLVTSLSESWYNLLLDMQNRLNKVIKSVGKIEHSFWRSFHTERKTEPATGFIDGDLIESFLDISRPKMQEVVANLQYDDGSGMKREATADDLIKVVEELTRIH

IC50 (CRBN-DDB1) [nM] | DC50 (GSPT1) [nM] | SMILES
100 to 1000 | > 300 | O=C1CCC(c2c(F)cc(N3CC(OC(=O)N4CCCC4)C3)cc2F)C(=O)N1 (stereo not shown) [Compound 144, 1-(4-(2,6-dioxopiperidin-3-yl)-3,5-difluorophenyl)azetidin-3-yl pyrrolidine-1-carboxylate]
≤ 100 | 30 to 300 | Cc1ccc(N(C)C(=O)OC2CN(c3cc(F)c(C4CCC(=O)NC4=O)c(F)c3)C2)cc1Cl (stereo not shown) [Compound 145, 1-(4-(2,6-dioxopiperidin-3-yl)-3,5-difluorophenyl)azetidin-3-yl(3-chloro-4-methylphenyl)(methyl) carbamate]
